Results published in ChEMBL document CHEMBL1909046, “DrugMatrix in vitro pharmacology data”.

Key:
[1] = target: T1, Amine oxidase [flavin-containing] A (Homo sapiens, UniProt P21397); assay: DRUGMATRIX: Monoamine Oxidase MAO-A enzyme inhibition (substrate: Kynuramine); set-up: species or system BTI-TN-5B1-4; conditions: Not Active = under 50% inhibition at 10 µM
T1 sequence (P21397 whole entry): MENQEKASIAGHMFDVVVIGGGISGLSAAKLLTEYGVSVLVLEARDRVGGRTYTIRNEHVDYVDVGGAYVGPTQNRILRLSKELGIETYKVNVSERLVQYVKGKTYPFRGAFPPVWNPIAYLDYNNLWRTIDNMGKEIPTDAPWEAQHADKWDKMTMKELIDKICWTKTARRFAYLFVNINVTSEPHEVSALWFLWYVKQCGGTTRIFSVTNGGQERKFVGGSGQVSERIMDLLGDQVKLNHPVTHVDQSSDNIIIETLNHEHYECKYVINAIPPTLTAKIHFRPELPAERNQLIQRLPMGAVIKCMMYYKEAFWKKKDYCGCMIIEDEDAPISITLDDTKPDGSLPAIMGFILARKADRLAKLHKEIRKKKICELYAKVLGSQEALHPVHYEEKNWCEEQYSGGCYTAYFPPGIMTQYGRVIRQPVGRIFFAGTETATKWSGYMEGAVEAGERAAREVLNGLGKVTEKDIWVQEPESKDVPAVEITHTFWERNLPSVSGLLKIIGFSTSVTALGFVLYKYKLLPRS

[2] = target: Sodium-dependent noradrenaline transporter (Homo sapiens, UniProt P23975); assay: DRUGMATRIX: Norepinephrine Transporter radioligand binding (ligand: [125I] RTI-55); assay type: cell membranes, MDCK, Membrane; conditions: Not Active = under 50% inhibition at 10 µM; for Ki: read-out: Ki
[3] = target: Tyrosine-protein kinase Lck (Homo sapiens, UniProt P06239); assay: DRUGMATRIX: Protein Tyrosine Kinase, LCK enzyme inhibition (substrate: Poly(Glu:Tyr)); assay type: cell-based, Insect cells; conditions: Not Active = under 50% inhibition at 10 µM
[4] = target: T2, Alpha-2C adrenergic receptor (Homo sapiens, UniProt P18825); assay: DRUGMATRIX: Adrenergic Alpha-2C radioligand binding (ligand: [3H] MK-912); assay type: cell membranes, Sf9, Membrane; conditions: for Ki: read-out: Ki
T2 sequence (P18825 whole entry): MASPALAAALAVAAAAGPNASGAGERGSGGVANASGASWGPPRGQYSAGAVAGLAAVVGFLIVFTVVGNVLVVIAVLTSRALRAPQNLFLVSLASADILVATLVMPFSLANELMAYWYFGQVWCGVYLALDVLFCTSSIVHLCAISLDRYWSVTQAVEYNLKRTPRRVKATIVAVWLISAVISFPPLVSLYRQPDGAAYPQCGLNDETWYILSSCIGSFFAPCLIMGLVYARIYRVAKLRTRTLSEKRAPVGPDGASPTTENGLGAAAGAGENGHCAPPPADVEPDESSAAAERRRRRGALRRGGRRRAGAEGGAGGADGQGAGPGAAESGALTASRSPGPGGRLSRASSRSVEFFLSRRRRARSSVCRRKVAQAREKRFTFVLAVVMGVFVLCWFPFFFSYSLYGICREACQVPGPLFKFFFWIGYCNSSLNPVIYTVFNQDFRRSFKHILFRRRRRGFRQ

[5] = target: Carbonic anhydrase 2 (Homo sapiens, UniProt P00918); assay: DRUGMATRIX: Carbonic Anhydrase II enzyme inhibition (substrate: 4-Nitrophenyl acetate (4-NPA)); assay type: tissue-based; conditions: erythrocyte; Not Active = under 50% inhibition at 10 µM
[6] = target: Cytochrome P450 3A4 (Homo sapiens, UniProt P08684); conditions: bti-tn-5b1-4; also: in other assays of this panel Not Active means under 50% inhibition at 10 µM
Sequence of Cytochrome P450 3A4 (P08684 whole entry): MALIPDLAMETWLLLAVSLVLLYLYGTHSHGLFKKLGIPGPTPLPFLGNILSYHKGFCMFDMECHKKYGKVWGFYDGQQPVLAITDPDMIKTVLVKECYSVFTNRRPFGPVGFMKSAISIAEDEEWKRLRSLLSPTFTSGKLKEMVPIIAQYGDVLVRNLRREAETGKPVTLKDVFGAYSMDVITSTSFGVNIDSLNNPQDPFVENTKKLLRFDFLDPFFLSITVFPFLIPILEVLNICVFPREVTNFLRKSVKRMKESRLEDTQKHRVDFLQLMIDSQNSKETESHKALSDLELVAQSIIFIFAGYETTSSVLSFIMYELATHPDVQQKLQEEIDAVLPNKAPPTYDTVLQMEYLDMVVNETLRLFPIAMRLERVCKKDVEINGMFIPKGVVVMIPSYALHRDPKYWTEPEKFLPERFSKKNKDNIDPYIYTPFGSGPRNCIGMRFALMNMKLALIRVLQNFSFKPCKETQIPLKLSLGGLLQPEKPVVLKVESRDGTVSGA

Sequence of Sodium-dependent noradrenaline transporter (P23975 whole entry): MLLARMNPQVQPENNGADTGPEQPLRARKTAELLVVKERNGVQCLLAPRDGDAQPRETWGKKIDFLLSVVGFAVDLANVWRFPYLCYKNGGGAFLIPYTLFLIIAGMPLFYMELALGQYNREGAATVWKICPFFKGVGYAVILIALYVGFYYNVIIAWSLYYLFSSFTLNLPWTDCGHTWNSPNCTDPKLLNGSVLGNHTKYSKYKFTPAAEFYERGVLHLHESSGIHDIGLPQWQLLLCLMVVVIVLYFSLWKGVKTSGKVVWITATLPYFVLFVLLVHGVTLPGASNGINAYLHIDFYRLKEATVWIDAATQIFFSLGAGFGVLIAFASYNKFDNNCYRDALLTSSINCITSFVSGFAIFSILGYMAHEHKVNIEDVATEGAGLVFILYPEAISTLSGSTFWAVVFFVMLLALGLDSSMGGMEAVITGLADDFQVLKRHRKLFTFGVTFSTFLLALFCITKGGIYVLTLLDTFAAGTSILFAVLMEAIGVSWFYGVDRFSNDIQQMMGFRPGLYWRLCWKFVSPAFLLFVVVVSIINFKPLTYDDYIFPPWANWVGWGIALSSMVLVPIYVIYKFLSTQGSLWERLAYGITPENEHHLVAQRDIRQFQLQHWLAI
Sequence of Tyrosine-protein kinase Lck (P06239 whole entry): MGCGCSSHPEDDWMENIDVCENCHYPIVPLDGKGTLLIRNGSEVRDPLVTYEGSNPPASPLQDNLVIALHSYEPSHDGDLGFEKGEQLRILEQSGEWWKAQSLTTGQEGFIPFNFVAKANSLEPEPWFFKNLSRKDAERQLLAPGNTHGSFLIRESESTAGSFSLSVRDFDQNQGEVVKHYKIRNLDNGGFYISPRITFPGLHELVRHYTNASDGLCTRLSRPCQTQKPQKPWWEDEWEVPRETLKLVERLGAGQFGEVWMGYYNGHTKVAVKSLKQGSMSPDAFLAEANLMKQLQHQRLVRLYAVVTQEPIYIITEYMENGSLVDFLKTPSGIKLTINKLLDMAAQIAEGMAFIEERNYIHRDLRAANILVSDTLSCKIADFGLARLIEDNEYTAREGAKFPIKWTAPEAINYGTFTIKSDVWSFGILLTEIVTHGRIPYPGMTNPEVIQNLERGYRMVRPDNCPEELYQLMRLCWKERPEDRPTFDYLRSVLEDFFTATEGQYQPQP

Structure (SMILES)	IC50 ([1]; bti-tn-5b1-4)	IC50 ([2]; mdck)	IC50 ([3]; read-out: IC50)	IC50 ([4]; sf9)	IC50 [5]	IC50 [6]	Ki [6]	IC50 ([3]; insect cells)	IC50 ([4]; read-out: IC50)	Ki [4]	IC50 ([2]; read-out: IC50)	Ki [2]	IC50 ([1]; read-out: IC50)
Cc1c(C)c2c(c(C)c1O)CCC(C)(CN1CCN(c3cc(N4CCCC4)nc(N4CCCC4)n3)CC1)O2 (configuration not stated)	Not Active	Not Active	17100 nM	Not Active	Not Active								
COc1ccc(CCN(C)CCCC(C#N)(c2ccc(OC)c(OC)c2)C(C)C)cc1OC (configuration not stated)	Not Active			Not Active	Not Active	Not Active	Not Active	Not Active					
CC(C)Cc1ccc([C@@H](C)C(=O)O)cc1 [(R)-IBUPROPHEN]	Not Active	Not Active		Not Active	Not Active	Not Active	Not Active	Not Active					
CN(C)CCOC(c1ccccc1)c1ccccc1 [DIPHENHYDRAMINE]	Not Active			Not Active	Not Active			Not Active					
Clc1ccc(COC(Cn2ccnc2)c2ccc(Cl)cc2Cl)cc1 (configuration not stated) [ECONAZOLE]	Not Active			Not Active	Not Active			Not Active					
CCN(CC)CCOc1ccc(/C(=C(/Cl)c2ccccc2)c2ccccc2)cc1 [ENCLOMIPHENE]	Not Active				Not Active	Not Active	Not Active	Not Active	1480 nM	215 nM			
Fc1ccc(C(c2ccc(F)cc2)N2CCN(C/C=C/c3ccccc3)CC2)cc1 [FLUNARIZINE]	Not Active				Not Active	Not Active	Not Active	Not Active	222 nM	32 nM	1340 nM	1330 nM	
CNCCC(Oc1ccc(C(F)(F)F)cc1)c1ccccc1 (configuration not stated) [FLUOXETINE]	Not Active			Not Active	Not Active	Not Active	Not Active	Not Active					
Cc1ccc(NC(=O)c2ccc(CN3CCN(C)CC3)cc2)cc1Nc1nccc(-c2cccnc2)n1 [IMATINIB]	Not Active	Not Active		Not Active									
CC(C)Oc1ccc2c(=O)c(-c3ccccc3)coc2c1 [IPRIFLAVONE]	Not Active			Not Active	Not Active	Not Active	Not Active	Not Active					
CC(C)NCC(O)c1ccc(O)c(O)c1 (configuration not stated) [ISOPROTERENOL]	Not Active	Not Active		Not Active	Not Active	Not Active	Not Active	Not Active					
CNC1(c2ccccc2Cl)CCCCC1=O (configuration not stated) [KETAMINE]	Not Active	Not Active		Not Active	Not Active	Not Active	Not Active	Not Active					
N#Cc1ccc(C(c2ccc(C#N)cc2)n2cncn2)cc1 [LETROZOLE]	Not Active	Not Active		Not Active	Not Active	Not Active	Not Active	Not Active					
CCN1CCC[C@H]1CNC(=O)c1cc(S(N)(=O)=O)ccc1OC [LEVOSULPIRIDE]	Not Active	Not Active		Not Active		Not Active	Not Active	Not Active					
CCN(CC)CC(=O)Nc1c(C)cccc1C [LIDOCAINE]	Not Active	Not Active		Not Active	Not Active			Not Active					
O=C1Nc2ccc(Cl)cc2C(c2ccccc2Cl)=NC1O (configuration not stated) [LORAZEPAM]	Not Active	Not Active		Not Active	Not Active	Not Active	Not Active	Not Active					

Structure (SMILES)	IC50 ([1]; bti-tn-5b1-4)	IC50 ([2]; mdck)	IC50 ([3]; read-out: IC50)	IC50 ([4]; sf9)	IC50 [5]	IC50 [6]	Ki [6]	IC50 ([3]; insect cells)	IC50 ([4]; read-out: IC50)	Ki [4]	IC50 ([2]; read-out: IC50)	Ki [2]	IC50 ([1]; read-out: IC50)
CO[C@@H]1[C@@H](OC)[C@H](C)[C@@](O)(CC(=O)O)O[C@H]1[C@H](C)[C@H]1O[C@@]2(CC[C@@](C)([C@H]3CC[C@@](C)([C@@H]4O[C@@H]([C@H]5O[C@](C)(O)[C@H](C)C[C@@H]5C)C[C@@H]4O[C@@H]4C[C@H](OC)[C@@H](OC)[C@H](C)O4)O3)O2)C[C@H](O)[C@H]1C [MADURAMICIN ACID]	Not Active	Not Active			Not Active	Not Active	Not Active	Not Active	1610 nM	234 nM			
COc1c2occc2cc2ccc(=O)oc12 [METHOXSALEN]	Not Active	Not Active		Not Active	Not Active	Not Active	Not Active	Not Active					
C[C@H]1C[C@@H]2[C@H]([C@@H](O)C[C@@]3(C)[C@H]2CC[C@]3(O)C(=O)CO)[C@@]2(C)C=CC(=O)C=C12 [METHYLPREDNISOLONE]	Not Active	Not Active		Not Active	Not Active	Not Active	Not Active	Not Active					
Cc1cccc(C)c1OCC(C)N (configuration not stated) [MEXILETINE]	Not Active	Not Active		Not Active	Not Active	Not Active	Not Active	Not Active					
Nc1cc(N2CCCCC2)nc(N)[n+]1[O-] [MINOXIDIL]	Not Active	Not Active		Not Active	Not Active	Not Active	Not Active	Not Active					
CO[C@H]1/C=C/O[C@@]2(C)Oc3c(C)c(O)c4c(O)c(c(/C=N/N5CCN(C6CCCC6)CC5)c(O)c4c3C2=O)NC(=O)/C(C)=C\C=C\[C@H](C)[C@H](O)[C@@H](C)[C@@H](O)[C@@H](C)[C@H](OC(C)=O)[C@@H]1C [RIFAPENTINE]	Not Active	Not Active		Not Active	Not Active			Not Active					
CCCCOc1cc(CC2CNC(=O)N2)ccc1OC (configuration not stated) [RO-201724]	Not Active	Not Active		Not Active	Not Active	Not Active	Not Active	Not Active					
CC[C@@H](C(=O)[C@@H](C)[C@@H](O)[C@H](C)[C@@H]1O[C@@H]([C@@H](CC)C(=O)O)CC[C@@H]1C)[C@H]1O[C@]2(C=C[C@@H](O)[C@]3(CC[C@@](C)([C@H]4CC[C@](O)(CC)[C@H](C)O4)O3)O2)[C@H](C)C[C@@H]1C [SALINOMYCIN]	Not Active	Not Active		Not Active	Not Active	Not Active	Not Active	Not Active					
O=C(Oc1ccccc1C(=O)O)c1ccccc1O [SALSALATE]	Not Active	Not Active		Not Active	Not Active	Not Active	Not Active	Not Active					
O=C(O)c1cn(-c2ccc(F)cc2)c2cc(N3CCNCC3)c(F)cc2c1=O [SARAFLOXACIN]	Not Active	Not Active		Not Active	Not Active	Not Active	Not Active	Not Active					
CN[C@H]1CC[C@@H](c2ccc(Cl)c(Cl)c2)c2ccccc21 [SERTRALINE]	Not Active				Not Active	Not Active	Not Active	Not Active					
CC(C)NCC(O)c1ccc(NS(C)(=O)=O)cc1 (configuration not stated) [SOTALOL]	Not Active	Not Active		Not Active	Not Active	Not Active	Not Active	Not Active					
COc1cc2nc(N3CCN(C(=O)C4CCCO4)CC3)nc(N)c2cc1OC (configuration not stated) [TERAZOSIN]	Not Active	Not Active			Not Active			Not Active					
CN(C/C=C/C#CC(C)(C)C)Cc1cccc2ccccc12 [TERBINAFINE]	Not Active			Not Active	Not Active			Not Active			4130 nM	4100 nM	
CCCCNc1ccc(C(=O)OCCN(C)C)cc1 [TETRACAINE]		Not Active		Not Active	Not Active			Not Active					317 nM
